# From US20250090699A1, “FAP TARGETING CYCLIC PEPTIDES AND CONJUGATES THEREOF” (Novartis AG, priority 2023, published 2025)
# Where a name gives a salt, the structure may show the parent alone. Starred links: 1 amine or outer side, 2 acyl side, 3 side chain; linkers in the order of their positions; H or OH if unused. Non-standard residues stand in square brackets, D forms with d. Residues, ends and D or L forms follow the SMILES beside them. Groups on a side chain read outwards from the residue. *: point of attachment. F(4amDOTA-Lu) = lutetium complex of (S)-2,2',2''-(10-(2-((4-(2-amino-2-carboxyethyl)benzyl)amino)-2-oxoethyl)-1,4,7,10-tetraazacyclododecane-1,4,7-triyl)triacetic acid (Phe with 4-aminomethyl-DOTA-Lu), O=C([O-])CN1CCN(CC(=O)[O-])CCN(CC(=O)NCc2ccc(C[C@H](N[*:1])C(=O)[*:2])cc2)CCN(CC(=O)[O-])CC1.[Lu+3]; X8 = O=C(O)CN1CCN(CC(=O)O)CCN(CC(=O)O)C(Cc2ccc(NC(=S)*)cc2)CN(CC(=O)O)CC1; DOTA = O=C(O)CN1CCN(CC(=O)O)CCN(CC(=O)*)CCN(CC(=O)O)CC1; Trp(7-F) = N[C@@H](Cc1c[nH]c2c(F)cccc12)C(=O)O; Phe(4-CH2NH2) = NCc1ccc(C[C@H](N)C(=O)O)cc1; Piperazinyl(4-CH2COOH) = O=C(O)CN1CCN(*)CC1; AEF = NCCOc1ccc(C[C@H](N)C(=O)O)cc1; Hyp = O=C(O)[C@@H]1C[C@@H](O)CN1; NMeF = CN[C@@H](Cc1ccccc1)C(=O)O; Ahp(2) = CCCCC[C@H](N)C(=O)O; hSer = N[C@@H](CCO)C(=O)O; dNMeA = CN[C@H](C)C(=O)O; Dab = NCC[C@H](N)C(=O)O; AEEA = NCCOCCOCC(=O)O; CO = O=C([*:1])[*:2]; Sar = CNCC(=O)O; Propyl = CCC*
# Legend:
# human FAP = molecular target: T1, human FAP (Homo sapiens, UniProt Q12884); test: Enzymatic FAP competition assay (Z-Gly-Pro-AMC fluorescence), human FAP; format: biochemical; details: read-out: h. FAP, Enz., IC50
# T1 construct: the biotinylated His, Avi tag, human FAP (26-760, FAP-H82Q6); His; Avi tag (biotinylated); purchased AcroBiosystems FAP-H82Q6
# T1 sequence (Q12884 26-760): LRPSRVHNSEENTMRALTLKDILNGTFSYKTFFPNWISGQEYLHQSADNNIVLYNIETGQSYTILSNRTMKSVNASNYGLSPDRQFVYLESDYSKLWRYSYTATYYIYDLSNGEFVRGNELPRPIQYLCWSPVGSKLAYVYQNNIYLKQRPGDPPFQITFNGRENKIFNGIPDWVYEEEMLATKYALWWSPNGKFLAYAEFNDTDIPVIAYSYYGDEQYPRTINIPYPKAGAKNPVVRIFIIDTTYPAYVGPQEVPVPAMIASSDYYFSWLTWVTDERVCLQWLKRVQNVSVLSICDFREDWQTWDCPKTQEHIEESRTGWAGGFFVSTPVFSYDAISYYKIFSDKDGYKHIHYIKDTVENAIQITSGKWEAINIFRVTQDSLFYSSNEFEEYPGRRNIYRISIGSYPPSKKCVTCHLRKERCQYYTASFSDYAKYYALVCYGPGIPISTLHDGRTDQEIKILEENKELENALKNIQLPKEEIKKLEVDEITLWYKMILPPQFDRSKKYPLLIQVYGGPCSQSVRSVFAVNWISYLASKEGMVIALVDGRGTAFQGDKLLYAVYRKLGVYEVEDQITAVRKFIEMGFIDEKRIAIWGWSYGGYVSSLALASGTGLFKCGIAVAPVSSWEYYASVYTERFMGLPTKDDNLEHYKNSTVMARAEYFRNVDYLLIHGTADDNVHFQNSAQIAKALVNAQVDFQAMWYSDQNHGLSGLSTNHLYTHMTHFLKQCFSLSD
# In short: (§1)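 Biotinylated His/Avi-tagged FAP ectodomain (human 26-760, mouse 26-761) at 0.01 nM, preincubated 24 h with peptides (14 concentrations, up to 1 μM) in pH 7.5 phosphate, 150 mM NaCl, 0.05% Tween20, 1% DMSO. Then 50 μM Z-Gly-Pro-AMC, 4 h at 22-24° C; AMC fluorescence (380/460 nm) gave IC50 from duplicate points.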
# mouse FAP [1] = molecular target: T2, mouse FAP (Mus musculus, UniProt P97321); test: Enzymatic FAP competition assay (Z-Gly-Pro-AMC fluorescence), mouse FAP; format: biochemical; details: read-out: m. FAP, Enz., IC50
# T2 construct: biotinylated His, Avi tag, mouse FAP (26-761, FAP-M82Q5); His; Avi tag (biotinylated); purchased AcroBiosystems FAP-M82Q5
# T2 sequence (P97321 26-761): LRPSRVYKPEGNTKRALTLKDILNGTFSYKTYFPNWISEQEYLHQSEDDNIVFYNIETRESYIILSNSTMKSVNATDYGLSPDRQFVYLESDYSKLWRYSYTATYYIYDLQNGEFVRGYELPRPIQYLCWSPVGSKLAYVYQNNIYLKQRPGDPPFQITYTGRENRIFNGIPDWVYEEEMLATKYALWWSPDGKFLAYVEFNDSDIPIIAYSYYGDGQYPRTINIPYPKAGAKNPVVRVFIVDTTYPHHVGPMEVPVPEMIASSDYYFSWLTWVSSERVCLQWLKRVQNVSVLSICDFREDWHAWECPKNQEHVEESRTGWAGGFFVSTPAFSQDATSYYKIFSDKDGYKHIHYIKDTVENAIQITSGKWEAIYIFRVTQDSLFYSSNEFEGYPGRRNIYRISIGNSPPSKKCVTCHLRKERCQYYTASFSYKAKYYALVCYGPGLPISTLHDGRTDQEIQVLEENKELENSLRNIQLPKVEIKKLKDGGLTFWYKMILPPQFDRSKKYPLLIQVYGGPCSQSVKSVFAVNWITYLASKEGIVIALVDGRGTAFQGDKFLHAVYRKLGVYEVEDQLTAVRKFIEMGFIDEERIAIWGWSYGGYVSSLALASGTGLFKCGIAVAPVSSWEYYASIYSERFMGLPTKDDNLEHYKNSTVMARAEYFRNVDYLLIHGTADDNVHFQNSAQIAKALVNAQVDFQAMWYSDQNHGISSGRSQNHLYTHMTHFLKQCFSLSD
# In short: as §1
# mouse FAP [2] = molecular target: T2, mouse FAP; test: Surface plasmon resonance (SPR) for peptide affinity, mouse FAP; format: binding
# In short: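 Biotinylated His/Avi-tagged FAP ectodomains (human 26-760, mouse 26-761) captured or immobilized on Biacore sensor chips; peptides run at 25 °C in HBS-EP+ pH 7.6 with 2% DMSO, single-cycle kinetics, 8 concentrations. KD from 1:1 binding-model fit of sensorgrams.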
IC50 (human FAP) [nM],IC50 (mouse FAP [1]) [nM],Kd (mouse FAP [2]) [nM],Compound
0.084,0.29,0.4,Gly-Gly-NMePhe-F(4amDOTA-Lu)-Ahp-Trp-Gly-Tyr-Asp-D-Pro (cyclo(GG[NMeF][F(4amDOTA-Lu)][Ahp(2)]WGYD[dP]); also: Lu complex) [Example C16]
0.021,0.055,0.059,"CCCOCC[C@@H]1NC(=O)[C@H](Cc2ccc(CNC(=O)COCCOCCNC(=S)Nc3ccc(CC4CN(CC(=O)O)CCN(CC(=O)O)CCN(CC(=O)O)CCN4CC(=O)O)cc3)cc2)NC(=O)[C@H](Cc2ccccc2)N(C)C(=O)CNC(=O)CNC(=O)[C@H]2CCCN2C(=O)[C@H](CC(=O)O)NC(=O)[C@H](CCCCNC(=O)N2CCN(CC(=O)O)CC2)NC(=O)CNC(=O)[C@H](Cc2c[nH]c3ccccc23)NC1=O (stereo partly drawn) [Example B35, Gly-Gly-NMePhe-F(4amPEG2NH-p-SCN-DOTA-hS(Pr)-Trp-Gly-K(COpipzaa)-Asp-D-Pro] (cyclo(D[dP]GG[NMeF][Phe(4-CH2NH2)]([AEEA-X8])[hSer](Propyl)WGK([CO-Piperazinyl(4-CH2COOH)])))"
0.111,0.48,0.45,"CCCCC[C@@H]1NC(=O)[C@H](Cc2ccc(O)cc2)NC(=O)[C@H](Cc2ccccc2)N(C)C(=O)CNC(=O)[C@H](CCCCN)NC(=O)[C@H]2CCCN2C(=O)[C@H](CC(=O)O)NC(=O)[C@H](Cc2ccc(O)cc2)NC(=O)CNC(=O)[C@H](Cc2c[nH]c3c(F)cccc23)NC1=O [Example A23, Lys-Gly-NMePhe-Tyr-Ahp-W(7F)-Gly-Tyr-Asp-D-Pro, TFA salt] (cyclo([Ahp(2)][Trp(7-F)]GYD[dP]KG[NMeF]Y))"
76,252,208,"CCCCC[C@@H]1NC(=O)[C@H](Cc2ccc(O)cc2)NC(=O)[C@H](Cc2ccccc2)N(C)C(=O)[C@@H](CO)NC(=O)CNC(=O)[C@H]2CCCN2C(=O)[C@H](CC(=O)O)NC(=O)[C@H](Cc2ccc(O)cc2)NC(=O)CNC(=O)[C@H](Cc2c[nH]c3ccccc23)NC1=O [Example A67, Gly-D-Ser-NMePhe-Tyr-Ahp-Trp-Gly-Tyr-Asp-D-Pro] (cyclo([Ahp(2)]WGYD[dP]G[dS][NMeF]Y))"
0.063,0.33,0.52,"CCCCC[C@@H]1NC(=O)[C@H](Cc2ccc(CNC(C)=O)cc2)NC(=O)[C@H](Cc2ccccc2)N(C)C(=O)CNC(=O)CNC(=O)[C@H]2CCCN2C(=O)[C@H](CC(=O)O)NC(=O)[C@H](Cc2ccc(O)cc2)NC(=O)CNC(=O)[C@H](Cc2c[nH]c3ccccc23)NC1=O [Example A28, Gly-Gly-NMePhe-F(4AmAc)-Ahp-Trp-Gly-Tyr-Asp-D-Pro] (cyclo(GG[NMeF][Phe(4-CH2NH2)](Ac)[Ahp(2)]WGYD[dP]))"
0.34,2.8,1.8,"CCCCC[C@@H]1NC(=O)[C@H](Cc2ccc(O)cc2)NC(=O)[C@H](Cc2ccccc2)N(C)C(=O)CNC(=O)CNC(=O)[C@@H](C)N(C)C(=O)[C@H](CC(=O)O)NC(=O)[C@H](Cc2ccc(O)cc2)NC(=O)CNC(=O)[C@H](Cc2c[nH]c3ccccc23)NC1=O [Example A65, Gly-Gly-NMePhe-Tyr-Ahp-Trp-Gly-Tyr-Asp-D-NMeA] (cyclo([Ahp(2)]WGYD[dNMeA]GG[NMeF]Y))"
1,3.2,1.1,"CCCCC[C@@H]1NC(=O)[C@H](Cc2ccc(OCCN)cc2)NC(=O)[C@H](Cc2ccccc2)N(C)C(=O)CNC(=O)[C@@H]2C[C@@H](O)CN2C(=O)[C@H]2CCCN2C(=O)[C@H](CC(=O)O)NC(=O)[C@H](Cc2ccc(O)cc2)NC(=O)CNC(=O)[C@H](Cc2c[nH]c3ccccc23)NC1=O [Example A33, trans4Hyp-Gly-NMePhe-F(4OEtNH2)-Ahp-Trp-Gly-Tyr-Asp-D-Pro] (cyclo([AEF][Ahp(2)]WGYD[dP][Hyp]G[NMeF]))"
0.014,0.034,< 0.068,Glu-Gly-NMe3PyA-F(4amPEG2NHDOTA-Lu)-hS(Pr)-W7N-Gly-K(COpipzaa)-Asp-D-Pro [Example C7]
0.025,0.091,0.093,"CCCCC[C@@H]1NC(=O)[C@H](Cc2ccc(OCCNC(=O)CN3CCN(CC(=O)O)CCN(CC(=O)O)CCN(CC(=O)O)CC3)cc2)NC(=O)[C@H](Cc2ccccc2)N(C)C(=O)CNC(=O)CNC(=O)[C@H]2CCCN2C(=O)[C@H](CC(=O)O)NC(=O)[C@H](CCCCNC(=O)N2CCN(CC(=O)O)CC2)NC(=O)CNC(=O)[C@H](Cc2c[nH]c3ccccc23)NC1=O [Example B3, Gly-Gly-NMePhe-F(4OEtNHDOTA)-Ahp-Trp-Gly-K(COpipzaa)-Asp-D-Pro] (cyclo([AEF](DOTA)[Ahp(2)]WGK([CO-Piperazinyl(4-CH2COOH)])D[dP]GG[NMeF]))"
0.07,0.5,0.62,"CCCCC[C@@H]1NC(=O)[C@H](Cc2ccc(O)cc2)NC(=O)[C@H](Cc2ccccc2)N(C)C(=O)CNC(=O)CNC(=O)[C@H]2CCCN2C(=O)[C@H](CC(=O)O)NC(=O)[C@H](CCNC(=O)N2CCN(CC(=O)O)CC2)NC(=O)CNC(=O)[C@H](Cc2c[nH]c3ccccc23)NC1=O [Example A5, Gly-Gly-NMePhe-Tyr-Ahp-Trp-Gly-Dab(COPipzaa)-Asp-D-Pro] (cyclo([Ahp(2)]WG[Dab]([CO-Piperazinyl(4-CH2COOH)])D[dP]GG[NMeF]Y))"
0.028,0.101,0.081,"CCCCC[C@@H]1NC(=O)[C@H](Cc2ccc(O)cc2)NC(=O)[C@H](Cc2ccccc2)N(C)C(=O)CNC(=O)CN(C)C(=O)[C@H]2CCCN2C(=O)[C@H](CC(=O)O)NC(=O)[C@H](Cc2ccc(O)cc2)NC(=O)CNC(=O)[C@H](Cc2c[nH]c3ccccc23)NC1=O [Example A73, 2-((9S,12S,15S,18S,24S,27S,32aR)-18-((1H-indol-3-yl)methyl)-9-benzyl-12,24-bis(4-hydroxybenzyl)-2,8-dimethyl-1,4,7,10,13,16,19,22,25,28-decaoxo-15-pentyldotriacontahydropyrrolo[1,2-a][1,4,7,10,13,16,19,22,25,28]decaazacyclotriacontin-27-yl)acetic acid] (cyclo([Ahp(2)]WGYD[dP][Sar]G[NMeF]Y))"

Compound,IC50 (human FAP) [nM],IC50 (mouse FAP [1]) [nM],Kd (mouse FAP [2]) [nM]
"CCCCC[C@@H]1NC(=O)[C@H](Cc2ccc(OCCNC(=O)CN3CCN(CC(=O)O)CCN(CC(=O)O)CCN(CC(=O)O)CC3)cc2)NC(=O)[C@H](Cc2ccccc2)N(C)C(=O)CNC(=O)[C@H](CCO)NC(=O)[C@H]2CCCN2C(=O)[C@H](CC(=O)O)NC(=O)[C@H](Cc2ccc(O)cc2)NC(=O)CNC(=O)[C@H](Cc2c[nH]c3ccccc23)NC1=O [Example B26, hSer-Gly-NMePhe-F(4OEtNHDOTA)-Ahp-Trp-Gly-Tyr-Asp-D-Pro, TFA salt] (cyclo([hSer]G[NMeF][AEF](DOTA)[Ahp(2)]WGYD[dP]))",0.027,0.117,0.105
